Where “and” joins values, the source holds several entries; their conditions need not be identical. Equal values may be shown once.
Molecular target: T1, human manganese superoxide dismutase (hMn SOD) variant Q143N (Gln 143 replaced by Asn), SEQ ID NO:3 (Homo sapiens, UniProt P04179, Q167N)
T1 construct: as a mature protein tagged with an extra Met at the amino terminus; made in house; host or cells: E. coli QC774 (SodA/SodB mutant), pTrc99A
T1 sequence (P04179 25-222 Q167N): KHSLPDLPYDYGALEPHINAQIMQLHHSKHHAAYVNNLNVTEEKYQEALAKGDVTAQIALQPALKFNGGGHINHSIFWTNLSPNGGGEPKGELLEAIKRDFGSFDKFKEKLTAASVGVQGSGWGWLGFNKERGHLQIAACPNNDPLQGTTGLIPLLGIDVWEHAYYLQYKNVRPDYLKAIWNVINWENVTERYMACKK
Experiment: Decay of superoxide catalyzed by Q143N hMnSOD, stopped-flow spectrophotometry at 5° C.
Type: biochemical
Description: Experiments were based on the stabilization of KO2 in aprotic solvent and the subsequent large dilution of this solution by an aqueous solution of enzyme in a stopped-flow apparatus, as described by McClune and Fee (1978). KO2 was dissolved in a mixture of dimethyl sulfoxide and […] (2:1 by volume; Aldrich, spectrophotometric grade) with solubility of KO2 enhanced with 18-crown-6 (Valentine and Curtis, 1975). The stopped-flow spectrophotometer (Kinetic Instruments, Ann Arbor, Mich.) was capable of efficient mixing of this solution with an acqueous solution of enzyme in buffer with a dead time between 1.5 and 2.0 ms. One drive syringe (capacity 50 μl) contained the aprotic solution of O2. This was diluted fifty-fold by the contents of a second syringe (capacity 2.5 ml) which contained enzyme, EDTA, and buffer. The decay of superoxide in initial velocity experiments and progress curves was monitored by its absorption at 250 to 300 nm. Stopped-flow experiments were carried out at […]. Four or more kinetic traces were averaged to reduce noise. Steady-state parameters were obtained by least-squares analysis of such data (Leatherbarrow (1987) "Enzfitter: a nonlinear regression data analysis program for the IBM PC" Elsevier BIOSOFT, Cambridge).

[1] = FIG. 2, Michaelis-Menten fit, H2O, 50 mM glycine buffer, 1 mM EDTA, pH 9.4, 5° C.
[2] = Table 1, stopped-flow spectrophotometry, 5° C., pH 9.4
[3] = Table 2, KINSIM fit of FIG. 8 scheme to stopped-flow data, 5° C., pH 9.4

SMILES: [O]O [superoxide]
- kcat [1]: 160 s⁻¹
- kcat /Km [1]: 850000 M⁻¹ s⁻¹
- maximal value of Kcat /Km (FIG. 3, fit of pH profile pH 8.5 to 10.5, 5° C.): ~7×10^6 M^-1 s^-1 and 7±3×10^6 M^-1 s^-1
- maximal value of Kcat (FIG. 4, fit of pH profile, 5° C., in 1/s): 310±30
- kcat [2]: 0.3 ms^-1
- kcat /km [2]: 0.82 µM⁻¹ s⁻¹
- k1 [3]: 2e+09 M⁻¹ s⁻¹
- k2 [3]: 600 s⁻¹
- k3 [3]: 2e+09 M⁻¹ s⁻¹
- k4 [3]: 600 s⁻¹
- k-1 [3]: 1.5e+06 s⁻¹
- k-4 [3]: 1000 M⁻¹ s⁻¹
- k-5 (Table 2, KINSIM fit, dead-end complex, 5° C., pH 9.4): 200 s⁻¹
- k5 (Table 2, KINSIM fit, formation of dead-end complex, 5° C., pH 9.4): 20000 s⁻¹
- kcat /Km (observed at pH 9.4, 5° C.): 7×10^5 M^1 s^1
- maximal value of Kcat (pH dependence (FIG. 4)): ~300 s⁻¹

From patent US6107070A, “Human manganese superoxide dismutase proteins” (University of Florida, priority 1998, dated 2000)
